Laboratory results: patent publication US4029688A, “Carbamic pesticidal compositions” (priority 1974, dated 1977)
Converted amounts (≈) assume the structure as drawn.

What was measured:
[1] = test system: southern armyworm (Prodenia eridania, (Cram.)); experiment: Southern Armyworm Leaf Spray Test; type: in vivo; design: key to Armyworm: C: no control; B: partial control; A: excellent control; conditions: for Armyworm: leaf spray, 500 parts per million, three days; for LC50: Spodoptera eridania, Table II, read-out: Armyworm LD50
Method: (§1) Suspensions of the test compounds were prepared by dissolving one gram of compound in 50 milliliters of acetone in which had been dissolved 0.1 gram (10 percent of the weight of compound) of an alkylphenoxy polyethoxyethanol surfactant, as an emulsifying or dispersing agent. The resulting solution was mixed into 150 milliliters of water to give roughly 200 milliliters of a suspension containing the compound in finely divided form. The thus-prepared stock suspension contained 0.5 percent by weight of compound. The test concentrations in parts per million by weight employed in the tests described hereinbelow were obtained by appropriate dilutions of the stock suspension with water. The test procedures were as follows:
Larvae of the southern armyworm (Prodenia eridania, (Cram.)), reared on Tendergreen bean plants at a temperature of 80°±5° F. and a relative humidity of 50±5 percent, constituted the test insects.
The test compounds were formulated by diluting the stock suspension with water to give a suspension containing 500 parts of test compound per million parts of final formulation. Potted Tendergreen bean plants of standard height and age were placed on a revolving turntable and sprayed with 100-110 milliliters of test compound formulation by use of a DeVilbiss spray gun set at 10 psig air pressure. This application, which lasted 25 seconds, was sufficient to wet plants to run-off. As a control, 100-110 milliliters of a water-acetone-emulsifier solution containing no test compound were also sprayed on infested plants. When dry, the paired leaves were separated and each one was placed in a 9 centimeter Petri dish lined with moistened filter paper. Five randomly selected larvae were introduced into each dish and the dishes were closed. The closed dishes were labeled and held at 80-85° F. for three days. Although the larvae could easily consume the whole leaf within twenty-four hours, no more food was added. Larvae which were unable to move the length of the body, even upon stimulation by prodding, were considered dead. Percent mortality was recorded for various concentration levels.
(§2) In the tests described above, the pesticidal activity of the compounds against aphid, mite, Southern Armyworm, Bean Beetle, house fly and nematode was rated as follows:
(§3) Comparison tests were conducted to assess the biological and chemical properties of certain representative species of the claimed invention in relation to their corresponding N-methyl carbamate compositions. The test procedures described above were employed in these experiments in order to determine the LD50 (number of parts per million of active ingredients required to achieve fifty percent mortality of the insects tested) for each of the compositions tested. In the case of the aphid and mite tests a side by side comparison was made of the N-methyl carbamate composition versus the corresponding perhalomethylsulfenyl derivative.

[2] = test system: two-spotted mite (Tetranychus urticae Koch); experiment: Mite Foliage Spray Test; type: in vivo; design: key to Mite (Spray): C: no control; B: partial control; A: excellent control; conditions: for Mite (Spray): foliage spray, 500 parts per million, six days; for LC50: Tetranychus urticae, foliar, Table II, side by side comparison, read-out: Mites Spray LD50
Method: as §1
(§4) Adults and numphal stages of the two-spotted mite (Tetranychus urticae Koch), reared on Tendergreen bean plants at 80±5 percent relative humidity, were the test organisms. Infested leaves from a stock culture were placed on the primary leaves of two bean plants six to eight inches in height, growing in a 21/2 inch clay pot. 150 -200 Mites, a sufficient number for testing, transferred from the excised leaves to the fresh plants in a period of twenty-four hours. Following the twenty-four hour transfer period, the excised leaves were removed from the infested plants. The test compounds were formulated by diluting the stock suspension with water to give a suspension containing 500 parts of test compound per million parts of final formulation. The potted plants (one pot per compound) were placed on a revolving turntable and sprayed with 100-110 milliliters of test compound formulation by use of a DeVilbiss spray gun set at 40 psig. air pressure. This application, which lasted 25 seconds, was sufficient to wet the plants to run-off. As a control, 100-110 milliliters of a water solution containing acetone and emulsifier in the same concentrations as the test compound formulation, but containing no test compound, were also sprayed on infested plants. The sprayed plants were held at 80±5 percent relative humidity for six days, after which a mortality count of motile forms was made. Microscopic examination for motile forms was made on the leaves of the test plants. Any individual which was capable of locomotion upon prodding was considered living.
as §2, §3

[3] = test system: two-spotted mite (Tetranychus urticae Koch); experiment: Mite Systemic Test; type: in vivo; design: key: C: no control; B: partial control; A: excellent control; conditions: soil drench, 20 milliliters of test formulation
Method: as §1, §4
Systemic treatments were made by drenching 20 milliliters of the test compound formulation into the soil around the roots of bean plants growing in 21/2 inch clay pots. These pots were held in 4 ounce wax paper containers to prevent cross-contamination and loss by leaching. The plants were 4 inches high at the time of treatment and had been infested with mites 24 hours previously. Subsequent steps for testing of the systemic miticidal activity were the same as those described above for the spray method of application.
In the tests described above, the pesticidal activity of the compounds against aphid, mite, Southern Armyworm, Bean Beetle, house fly and nematode was rated as follows: […]

Chemical stability = type: physicochemical; conditions: Table II
[4] = Peroral toxicity to mammals (rat); conditions: in vivo, po
Method: Certain of these compositions were also evaluated to determine their peroral toxicity to mammals. The animal selected for this experiment was the rat. The test results obtained are expressed in terms of the number of milligrams of composition per kilogram of weight of the animal required to achieve a mortality rate of 50 percent (LD50).

Row | Compound | Armyworm [1] | Mite (Spray) [2] | Mite (Systemic) [3] | LC50 [1] [µg/mL] | LC50 [2] [µg/mL] | Stability (Chemical stability) | LD50 ([4]; peroral, Table I) [mg/kg] | LD50 ([4]; Table II) [mg/kg]
1 | CSCC(C)=NOC(=O)N(C)SC(Cl)(Cl)Cl | C | C | C | – | – | – | – | –
2 | CSCC(=NOC(=O)N(C)SC(Cl)(Cl)Cl)C(C)(C)C | C | A | A | – | – | – | – | –
3 | CC(CSC(C)(C)C)=NOC(=O)N(C)SC(Cl)(Cl)Cl | C | C | C | – | – | – | – | –
4 | CC(=NOC(=O)N(C)SC(Cl)(Cl)Cl)C(C)(C)N=[N+]=[N-] | C | C | C | – | – | – | – | –
5 | CC(=NOC(=O)N(C)SC(Cl)(Cl)Cl)C(C)(C)[N+](=O)[O-] | B | A | A | – | – | – | – | –
6 | CC(C[N+](=O)[O-])=NOC(=O)N(C)SC(Cl)(Cl)Cl | C | C | C | – | – | – | – | –
7 | CC(=NOC(=O)N(C)SC(Cl)(Cl)Cl)C(C)(C)C#N | B | A | A | – | – | – | – | –
8 | COC(C)(C)C(Cl)=NOC(=O)N(C)SC(Cl)(Cl)Cl | C | A | A | – | – | – | – | –
9 | CCOC(=O)CSC(C)(C)C=NOC(=O)N(C)SC(Cl)(Cl)Cl | C | C | C | – | – | – | – | –
10 | CCOC(=O)C(C)SC(C)(C)C=NOC(=O)N(C)SC(Cl)(Cl)Cl (centres unmarked) | C | B | B | – | – | – | – | –
11 | CSC(=NOC(=O)N(C)SC(Cl)(Cl)Cl)C(C)(SC)SC | C | A | B | – | – | – | – | –
12 | CCOC(=O)CSC(C)=NOC(=O)N(C)SC(Cl)(Cl)Cl | C | C | C | – | – | – | – | –
13 | CCOC(=O)CCSC(C)=NOC(=O)N(C)SC(Cl)(Cl)Cl | B | C | C | – | – | – | – | –
14 | CC(=NOC(=O)N(C)SC(Cl)(Cl)Cl)SCCC#N [1-(2-Cyanoethylthio)acetaldehyde O-(N-methyl-N-trichloromethanesulfenylcarbamoyl)oxime] | A | A | – | 6 (≈ 17.1 µM) | 22 (≈ 62.7 µM) | stable | 85.7 | –
15 | CN(SC(Cl)(Cl)Cl)C(=O)ON=CC(C)(C)C#N [2-Methyl-2-cyanopropionaldehyde O-(N-methyl-N-trichloromethanesulfenylcarbamoyl)oxime] | A | A | A | 50 (≈ 157 µM) | 23 (≈ 72.2 µM) | stable | – | 28.3
16 | CN(SC(Cl)(Cl)Cl)C(=O)ON=CC(C)(C)[S+](C)[O-] (centres unmarked) [2-Methyl-2-methylsulfinylpropionaldehyde O-(N-methyl-N-trichloromethanesulfenylcarbamoyl)oxime] | A | A | A | – | – | – | – | –
17 | CN(SC(Cl)(Cl)Cl)C(=O)ON=CC(C)(C)S(C)(=O)=O [2-Methyl-2-methylsulfonylpropionaldehyde O-(N-methyl-N-trichloromethanesulfenylcarbamoyl)oxime] | C | A | C | – | – | – | – | –
18 | CN(SC(Cl)(Cl)Cl)C(=O)ON=CC(C)(C)[N+](=O)[O-] [2-Methyl-2-nitropropionaldehyde O-(N-methyl-N-trichloromethanesulfenylcarbamoyl)oxime] | A | A | A | 130 (≈ 384 µM) | 40 (≈ 118 µM) | stable | 13 | 14
19 | CN(SC(F)(F)F)C(=O)ON=CC(C)(C)C#N [drawing 12] | A | A | – | – | – | – | – | –
